According to PubChem BioAssay AID1963445 (Molecular Pharmacology Branch, DTP, NCI, 2024):

System: MCF7 complex spheroid growth, % test/control
Assay: Anticancer human tumor MCF7 cell line growth inhibition [Asc];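 note: spheroids exposed to compounds for 7 days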;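 for viability, T/C: 100% = DMSO vehicle control wells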
Conditions: for IC50: curve of first compound; for viability, T/C: stronger effect = lower value; active = viability on the fitted dose curve at most 10% of control; inactive = the rest
Procedure, shortened: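 Tumor cells were grown as multicellular spheroids with stromal HUVEC and mesenchymal stem cells and treated singly or in combination. Concentrations fell in half-log steps from the clinical Cmax, or from 10 microM where none was known.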

[1] = second compound 0.0316 µM, first compound 0.0316 µM
[2] = second compound 0.0316 µM, first compound 0.1 µM
[3] = second compound 0.0316 µM, first compound 0.316 µM
[4] = second compound 0.0316 µM, first compound 1 µM
[5] = second compound 0.1 µM, first compound 0.0316 µM
[6] = second compound 0.1 µM, first compound 0.1 µM
[7] = second compound 0.1 µM, first compound 0.316 µM
[8] = second compound 0.1 µM, first compound 1 µM
[9] = second compound 0.316 µM, first compound 0.0316 µM
[10] = second compound 0.316 µM, first compound 0.1 µM
[11] = second compound 0.316 µM, first compound 0.316 µM
[12] = second compound 0.316 µM, first compound 1 µM
[13] = second compound 1 µM, first compound 0.0316 µM
[14] = second compound 1 µM, first compound 0.1 µM
[15] = second compound 1 µM, first compound 0.316 µM
[16] = second compound 1 µM, first compound 1 µM
[17] = second compound 3.16 µM, first compound 0.0316 µM
[18] = second compound 3.16 µM, first compound 0.1 µM
[19] = second compound 3.16 µM, first compound 0.316 µM
[20] = second compound 3.16 µM, first compound 1 µM
[21] = second compound 10 µM, first compound 0.0316 µM
[22] = second compound 10 µM, first compound 0.1 µM
[23] = second compound 10 µM, first compound 0.316 µM
[24] = second compound 10 µM, first compound 1 µM

C#Cc1c(F)ccc2cc(O)cc(-c3ncc4c(N5CC6CCC(C5)N6)nc(OCC56CCCN5CC(F)C6)nc4c3F)c12 (centres undefined) + Cc1c(S(C)(=O)=O)c(-c2cc(F)cc(N3CCN(c4ccc(NS(=O)(=O)c5ccc(NC(CCN6CCC(C(=O)OCCCP(=O)(O)O)CC6)CSc6ccccc6)c(S(=O)(=O)C(F)(F)F)c5)cc4)CC3)c2)c(-c2ccc(Cl)cc2)n1C(C)C
> 10000 nM: IC50 (second compound 0.0316 µM) | IC50 (second compound 0.1 µM) | IC50 (second compound 0.316 µM) | IC50 (second compound 1 µM) | IC50 (second compound 3.16 µM) | IC50 (second compound 10 µM)
inactive: viability, T/C [1] 96.2% | viability, T/C [2] 90% | viability, T/C [3] 89.6% | viability, T/C [4] 92.3% | viability, T/C (second compound 0.0316 µM, first compound 3.16 µM) 98.4% | viability, T/C (second compound 0.0316 µM, first compound 10 µM) 91.8% | viability, T/C [5] 104% | viability, T/C [6] 103% | viability, T/C [7] 87.5% | viability, T/C [8] 84.1% | viability, T/C (second compound 0.1 µM, first compound 3.16 µM) 83.4% | viability, T/C (second compound 0.1 µM, first compound 10 µM) 82.5% | viability, T/C [9] 91% | viability, T/C [10] 83% | viability, T/C [11] 73.7% | viability, T/C [12] 86.7% | viability, T/C (second compound 0.316 µM, first compound 3.16 µM) 88.6% | viability, T/C (second compound 0.316 µM, first compound 10 µM) 86.5% | viability, T/C [13] 86% | viability, T/C [14] 95.9% | viability, T/C [15] 81.9% | viability, T/C [16] 82.6% | viability, T/C (second compound 1 µM, first compound 3.16 µM) 79% | viability, T/C (second compound 1 µM, first compound 10 µM) 85.7% | viability, T/C [17] 80.3% | viability, T/C [18] 77.7% | viability, T/C [19] 88.7% | viability, T/C [20] 72.5% | viability, T/C (second compound 3.16 µM, first compound 3.16 µM) 74.1% | viability, T/C (second compound 3.16 µM, first compound 10 µM) 80.5% | viability, T/C [21] 272% | viability, T/C [22] 226% | viability, T/C [23] 251% | viability, T/C [24] 292% | viability, T/C (second compound 10 µM, first compound 3.16 µM) 249% | viability, T/C (second compound 10 µM, first compound 10 µM) 196%

CNC(C)C(=O)NC1CN(S(=O)(=O)c2cccc(S(=O)(=O)N3CCC4CCC(C(=O)NC(c5ccccc5)c5ccccc5)N4C(=O)C(NC(=O)C(C)NC)C3)c2)CCC2CCC(C(=O)NC(c3ccccc3)c3ccccc3)N2C1=O (centres undefined) + Cc1c(S(C)(=O)=O)c(-c2cc(F)cc(N3CCN(c4ccc(NS(=O)(=O)c5ccc(NC(CCN6CCC(C(=O)OCCCP(=O)(O)O)CC6)CSc6ccccc6)c(S(=O)(=O)C(F)(F)F)c5)cc4)CC3)c2)c(-c2ccc(Cl)cc2)n1C(C)C
4.92 nM: IC50 (second compound 0.316 µM)
5.15 nM: IC50 (second compound 0.0316 µM)
6.44 nM: IC50 (second compound 0.1 µM)
4.17 nM: IC50 (second compound 10 µM)
inactive: viability, T/C (second compound 0.0316 µM, first compound 0.00316 µM) 73.3% | viability, T/C (second compound 0.0316 µM, first compound 0.01 µM) 17.6% | viability, T/C [1] 15.6% | viability, T/C [2] 18.6% | viability, T/C [3] 16.3% | viability, T/C [4] 20.2% | viability, T/C (second compound 0.1 µM, first compound 0.00316 µM) 96.3% | viability, T/C (second compound 0.1 µM, first compound 0.01 µM) 21.4% | viability, T/C [5] 17.3% | viability, T/C [6] 17% | viability, T/C [7] 17.7% | viability, T/C [8] 16.9% | viability, T/C (second compound 0.316 µM, first compound 0.00316 µM) 65.9% | viability, T/C (second compound 0.316 µM, first compound 0.01 µM) 25.1% | viability, T/C [9] 16.4% | viability, T/C [10] 19% | viability, T/C [11] 19.2% | viability, T/C [12] 18.8% | viability, T/C (second compound 1 µM, first compound 0.00316 µM) 78.9% | viability, T/C (second compound 1 µM, first compound 0.01 µM) 20% | viability, T/C [13] 18.6% | viability, T/C [14] 19.8% | viability, T/C [15] 17.4% | viability, T/C [16] 15.9% | viability, T/C (second compound 3.16 µM, first compound 0.00316 µM) 37% | viability, T/C (second compound 3.16 µM, first compound 0.01 µM) 19.1% | viability, T/C [17] 18.3% | viability, T/C [18] 22.8% | viability, T/C [19] 20.4% | viability, T/C [20] 20.1% | viability, T/C (second compound 10 µM, first compound 0.00316 µM) 56% | viability, T/C (second compound 10 µM, first compound 0.01 µM) 31.6% | viability, T/C [21] 23.8% | viability, T/C [22] 21.7% | viability, T/C [23] 21.5% | viability, T/C [24] 24%
< 3.16 nM: IC50 (second compound 3.16 µM)
5.56 nM: IC50 (second compound 1 µM)
